What all share (experiment): NCI anticancer screen, dose series, 48 h
In test [1] the test system is MALME-3M melanoma.
Test [2] concerns EKVX NSCLC.
The test system of test [3] is SK-MEL-2 melanoma.
The test system of test [4] is RXF 393 renal.
Test [5] has as its system LOX IMVI melanoma.
Test [6] relates to HCT-15 colon.
Test [7] concerns BT-549 breast.
Test [8] has as its system UO-31 renal.
For test [9], the system named is T-47D breast.
Test [10] relates to DU-145 prostate.

Several values for one entry are separate records, joined by “and”; a condition that tells them apart may be missing. Identical values can stand only once.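 Interpolation was linear, between the two tested concentrations surrounding the appropriate level; five concentrations were tested over 48 hours in 96-well plates. Here, GI50 denotes the concentration required for 50% inhibition of growth. TGI marks complete inhibition of growth.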

As for `C=C[C@H]1CN2CCc3c([nH]c4c([C@@H]5CCCN5C)c(O)ccc34)[C@@H]2C[C@@H]1C[C@H]1c2[nH]c3ccccc3c2CCN1C`, the TGI in test [1] was 3.41 µM; in test [2], 2.94 µM and 3.07 µM; in test [3] it was 3.37 µM; in [4], 0.913 µM and 1.52 µM; in test [5], 3.03 µM and 2.86 µM; in [6], 2.49 µM and 2.9 µM. Also, the TGI was 3.27 µM and 2.96 µM in test [7]; 2.8 µM [middle of 4 runs] in test [8]; 3.26 µM and 3.91 µM in test [9]; 2.88 µM and 3.16 µM in test [10]. Moreover, the GI50 in test [8] is 1.42 µM and 1.44 µM.
Turning to `CC1NC(C(=O)O)Cc2cc(O)c(O)cc21` (stereo not given), the TGI in [1], in test [2], in [3], in test [4], in [5] and in test [6] was more than 100 µM each time. Further, the TGI in test [7], in test [8], in [9] and in test [10] was more than 100 µM each time.
For the compound `CN(C)c1ccc(/C=C(\C#N)c2ccccc2)cc1`, the GI50 in test [1] was 2.58 µM and 18 µM; in test [2], 0.499 µM and 1.43 µM and 1.78 µM; in test [3] it was 0.453 µM and 0.465 µM; in [4] it was 0.394 µM and 0.662 µM and 0.817 µM; in test [5], 0.777 µM and 0.605 µM and 0.404 µM; in test [6], 0.3 µM and 0.348 µM and 0.383 µM. Besides, the GI50 is 0.121 µM and 0.794 µM and 0.621 µM in test [7]; 0.587 µM and 0.698 µM and 1.74 µM in test [8]; 0.446 µM and 0.534 µM and 0.473 µM in [9]; 0.617 µM and 1.51 µM and 1.48 µM in test [10]. In addition, the TGI is more than 100 µM in [1]; more than 100 µM in test [2]; more than 100 µM in test [3]; 3.09 µM and 5.77 µM in [4]; > 100 µM and 43.1 µM in [5]; more than 100 µM in test [6]. Moreover, the TGI in test [8] is more than 100 µM; in test [9], more than 100 µM; in test [10], 22.3 µM and > 100 µM.
`CCCCCCCCCCCCNC(=O)N[C@H](C(=O)N[C@H]1/C=C/CCNC(=O)/C=C/[C@H](C)NC1=O)C(C)C`: the GI50 in test [1] is 0.422 µM; in test [2], 0.477 µM; in test [3] it was 0.207 µM; in [4], 0.0166 µM; in test [5], 0.113 µM; in test [6], 2.76 µM. Besides, the GI50 was 0.0228 µM in [7], 32.2 µM in test [8], 0.144 µM in [9] and 0.108 µM in [10]. In addition, the TGI in test [1] is 2.99 µM; in [2] it was 12.6 µM; in test [3], 0.627 µM; in test [4], 0.0405 µM; in test [5] it was 0.355 µM; in test [6] it was more than 100 µM. Moreover, the TGI in test [7] is 0.0701 µM; in [8] it was more than 100 µM; in [9], 0.36 µM; in test [10], 3.78 µM.
`Cc1ccc(S(=O)(=O)OCC(=O)Nc2ccc(C(=O)O)c(O)c2)cc1`: the GI50 was 32.3 µM in test [1]; 165 µM in [2]; 50.2 µM in test [3]; 16.5 µM in test [4]; 20.8 µM in test [5]; 38.8 µM in [6]. Further, the GI50 is 71.6 µM in [7], 45.1 µM in [8], 43.2 µM in test [9] and 26.8 µM in [10]. For the same compound, the TGI was 115 µM in test [1]; 332 µM in test [2]; 203 µM in [3]; 85 µM in test [4]; 61 µM in [5]; 155 µM in test [6]. Also, the TGI in test [7] was 206 µM; in [8], 173 µM; in test [9] it was 133 µM; in [10], 75.9 µM.
With `CCNC(=O)Oc1ccc(/C(=C(\C)c2ccc(Cl)cc2)c2ccc(OCCN(CC)CC)cc2)cc1`, the GI50 in test [1] is 1.7 µM; in test [2] it was 10.3 µM; in test [3], 5.01 µM; in test [4], 2.35 µM; in [5] it was 1.94 µM; in test [6], 2.21 µM. Moreover, the GI50 is 5.33 µM in [7], 1.54 µM in test [8], 2.16 µM in test [9] and 11.1 µM in [10]. Besides, the TGI was found to be 3.61 µM in test [1]; 23.6 µM in test [2]; 17.6 µM in test [3]; 9.84 µM in test [4]; 4.02 µM in test [5]; 7.04 µM in [6]. The TGI in test [7] came to 18.5 µM; in test [8] it was 3.62 µM; in [9], 12.5 µM; in [10], 24.2 µM.

The values are drawn from PubChem BioAssay (NCI).
